For data set [1], the target named is Voltage-gated inwardly rectifying potassium channel KCNH2 (Homo sapiens, UniProt Q12809). Kind of data set: Inhibition of hERG channel by voltage clamp assay. The format is toxicity.
In another data set the target is hERG (Homo sapiens, UniProt Q12809). The data set can be described thus: Inhibition of hERG channel by rubidium efflux assay at 5 ug/ml. The format is toxicity.
Data set [2] addresses Melanin-concentrating hormone receptor 1 (Homo sapiens, UniProt Q99705). Kind of data set: Binding affinity to MCHR1.
Data set [3] in a line: AUC (0-6h) in rat at 10 mg/kg, po. The data set is classed as ADME, organism-based. The note with it: plasma. Set-up: time < 6 hr, dose 10 mg/kg, route oral.

Chain of hERG (Q12809 whole entry): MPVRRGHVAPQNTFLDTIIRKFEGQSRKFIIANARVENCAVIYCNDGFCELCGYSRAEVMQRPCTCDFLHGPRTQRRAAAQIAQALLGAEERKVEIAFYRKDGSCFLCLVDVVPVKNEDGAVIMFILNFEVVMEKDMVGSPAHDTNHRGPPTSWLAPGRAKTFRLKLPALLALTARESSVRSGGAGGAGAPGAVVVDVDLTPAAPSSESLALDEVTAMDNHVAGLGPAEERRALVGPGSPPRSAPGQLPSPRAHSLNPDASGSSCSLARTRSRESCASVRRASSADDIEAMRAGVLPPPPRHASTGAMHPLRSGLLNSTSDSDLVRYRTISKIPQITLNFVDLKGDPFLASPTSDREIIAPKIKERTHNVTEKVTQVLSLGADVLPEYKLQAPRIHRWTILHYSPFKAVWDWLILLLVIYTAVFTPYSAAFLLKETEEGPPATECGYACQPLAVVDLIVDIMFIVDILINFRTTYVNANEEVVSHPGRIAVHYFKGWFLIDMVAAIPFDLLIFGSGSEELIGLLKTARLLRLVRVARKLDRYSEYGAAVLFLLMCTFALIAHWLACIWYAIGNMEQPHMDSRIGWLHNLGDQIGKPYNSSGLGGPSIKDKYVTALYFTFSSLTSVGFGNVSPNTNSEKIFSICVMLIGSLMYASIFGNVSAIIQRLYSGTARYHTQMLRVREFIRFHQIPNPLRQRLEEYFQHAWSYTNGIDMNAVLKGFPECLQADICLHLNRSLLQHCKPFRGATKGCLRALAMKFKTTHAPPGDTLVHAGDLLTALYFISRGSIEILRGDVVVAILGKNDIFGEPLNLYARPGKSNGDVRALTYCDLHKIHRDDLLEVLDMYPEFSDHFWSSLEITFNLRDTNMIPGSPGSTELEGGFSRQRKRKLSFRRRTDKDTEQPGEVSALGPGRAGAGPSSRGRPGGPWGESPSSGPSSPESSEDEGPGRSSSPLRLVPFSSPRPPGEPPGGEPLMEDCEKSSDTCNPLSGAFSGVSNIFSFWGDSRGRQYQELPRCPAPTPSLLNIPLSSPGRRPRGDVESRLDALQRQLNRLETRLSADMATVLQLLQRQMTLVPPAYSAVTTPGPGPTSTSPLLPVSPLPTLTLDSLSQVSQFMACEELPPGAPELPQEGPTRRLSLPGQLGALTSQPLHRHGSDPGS
Chain of Melanin-concentrating hormone receptor 1 (Q99705 whole entry): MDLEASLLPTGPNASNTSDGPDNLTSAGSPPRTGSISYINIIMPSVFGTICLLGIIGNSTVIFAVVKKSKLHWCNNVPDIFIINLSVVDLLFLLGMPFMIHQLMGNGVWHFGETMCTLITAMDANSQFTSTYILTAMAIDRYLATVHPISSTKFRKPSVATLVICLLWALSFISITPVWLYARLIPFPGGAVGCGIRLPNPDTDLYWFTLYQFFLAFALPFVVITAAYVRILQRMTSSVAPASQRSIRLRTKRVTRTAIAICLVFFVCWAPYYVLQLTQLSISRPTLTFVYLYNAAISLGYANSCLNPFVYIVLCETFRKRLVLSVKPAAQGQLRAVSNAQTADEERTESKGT
Chain of Voltage-gated inwardly rectifying potassium channel KCNH2 (Q12809 whole entry): as the sequence (Q12809 whole entry) above

`CN1CCN(CCCN(C(=O)Nc2ccc(F)c(C(F)(F)F)c2)[C@@H]2CC[C@]3(c4ccc(C#N)cc4)C[C@H]23)CC1` showed an IC50 in data set [1] of 52 nM. For the same molecule, the inhibition at 5 ug/ml against hERG worked out at 86%.

In the case of `CN1CCN(CCCN(C(=O)Nc2ccc(F)c(C(F)(F)F)c2)[C@@H]2CC[C@]3(c4ccc5c(N)noc5c4)C[C@H]23)CC1`, in data set [1], the IC50 is 690 nM. This molecule showed an inhibition at 5 ug/ml against hERG of 26%. `COc1cccc([C@]23CC[C@@H](N(CCCN4CCN(C)CC4)C(=O)Nc4ccc(F)c(Cl)c4)[C@H]2C3)c1` gave a Ki in data set [2] of 2.7 nM. Besides, the inhibition at 5 ug/ml against hERG turned out to be 70%. `CN1CCN(CCCN(C(=O)Nc2ccc(F)c(C(F)(F)F)c2)[C@@H]2CC[C@]3(c4ccc(=O)[nH]c4)C[C@H]23)CC1` came in with an inhibition at 5 ug/ml at hERG of 9%.

On hERG, `CC(=O)Nc1ccc([C@]23CC[C@@H](N(CCCN4CCN(C)CC4)C(=O)Nc4ccc(F)c(Cl)c4)[C@H]2C3)cc1` returned an inhibition at 5 ug/ml of 18%. As for `CNC(=O)c1ccc([C@]23CC[C@@H](N(CCCN4CCN(C)CC4)C(=O)Nc4ccc(F)c(C(F)(F)F)c4)[C@H]2C3)cc1`, the inhibition at 5 ug/ml against hERG is 25%. Regarding `CN1CCN(CCCN(C(=O)Nc2ccc(F)c(Cl)c2)[C@@H]2CC[C@]3(c4cccc(N5CCCC5=O)c4)C[C@H]23)CC1`, the inhibition at 5 ug/ml against hERG is 14%.

`CN1CCN(CCCN(C(=O)Nc2ccc(F)c(Cl)c2)[C@@H]2CC[C@]3(c4cccc(NC(=O)C5CC5)c4)C[C@H]23)CC1` had an area under the curve AUC(0-t) at 6 h in data set [3] of 634 ng·h/mL. This molecule also yielded a Ki in data set [2] of 6.8 nM. On hERG, this molecule gave an inhibition at 5 ug/ml of 46%. For `CN1CCN(CCCN(C(=O)Nc2ccc(F)c(Cl)c2)[C@@H]2CC[C@]3(c4ccc(N)cc4)C[C@H]23)CC1`, the affinity in data set [2] corresponds to a Ki of 4.4 nM. At hERG, this molecule gave an inhibition at 5 ug/ml of 16%.

With `CCC(=O)Nc1cccc([C@]23CC[C@@H](N(CCCN4CCN(C)CC4)C(=O)Nc4ccc(F)c(Cl)c4)[C@H]2C3)c1`, on hERG, the inhibition at 5 ug/ml is 34%. `CN1CCN(CCCN(C(=O)Nc2ccc(F)c(C(F)(F)F)c2)[C@@H]2CC[C@]3(c4ccc5c(c4)CC(=O)N5)C[C@H]23)CC1`: the affinity in data set [2], expressed as Ki, was 15 nM. On hERG, this molecule displayed an inhibition at 5 ug/ml of 50%. In the case of `CC(C)C(=O)Nc1cccc([C@]23CC[C@@H](N(CCCN4CCN(C)CC4)C(=O)Nc4ccc(F)c(Cl)c4)[C@H]2C3)c1`, in data set [3], the AUC(0-t) at 6 h worked out at 339 ng·h/mL. In addition, the Ki in data set [2] was 15.1 nM. The molecule further came in with an inhibition at 5 ug/ml at hERG of 37%. `CN1CCN(CCCN(C(=O)Nc2ccc(F)c(Cl)c2)[C@@H]2CC[C@]3(c4ccc(NC(=O)OC(C)(C)C)cc4)C[C@H]23)CC1` had an inhibition at 5 ug/ml against hERG of 87%. The molecule `CCNC(=O)Nc1cccc([C@]23CC[C@@H](N(CCCN4CCN(C)CC4)C(=O)Nc4ccc(F)c(Cl)c4)[C@H]2C3)c1` had an AUC(0-t) at 6 h in data set [3] of 127 ng·h/mL. In addition, the Ki in data set [2] turned out to be 28 nM. The molecule further registered an inhibition at 5 ug/ml at hERG of 17%. At hERG, `CN1CCN(CCCN(C(=O)Nc2ccc(F)c(Cl)c2)[C@@H]2CC[C@]3(c4cccc(N5CCC5)c4)C[C@H]23)CC1` gave an inhibition at 5 ug/ml of 29%.

Molecule `COc1ccc([C@]23CC[C@@H](N(CCCN4CCN(C)CC4)C(=O)Nc4ccc(F)c(C(F)(F)F)c4)[C@H]2C3)cn1` came in with an inhibition at 5 ug/ml against hERG of 36%. In data set [2], `CN1CCN(CCCN(C(=O)Nc2ccc(F)c(C(F)(F)F)c2)[C@@H]2CC[C@]3(c4ccc5onc(N)c5c4)C[C@H]23)CC1` showed a Ki of 46 nM. Further, on hERG, the inhibition at 5 ug/ml was determined as 46%. As to `CN1CCN(CCCN(C(=O)Nc2ccc(F)c(Cl)c2)[C@@H]2CC[C@]3(c4ccc(F)cc4)C[C@H]23)CC1`, the inhibition at 5 ug/ml at hERG was 87%.

`CN1CCN(CCCN(C(=O)Nc2ccc(F)c(C(F)(F)F)c2)[C@@H]2CC[C@]3(c4ccc(S(C)(=O)=O)cc4)C[C@H]23)CC1` displayed an inhibition at 5 ug/ml on hERG of 46%. Molecule `CN1CCN(CCCN(C(=O)Nc2ccc(F)c(Cl)c2)[C@@H]2CC[C@]3(c4ccccc4)C[C@H]23)CC1` showed an inhibition at 5 ug/ml on hERG of 58%. For `CN1CCN(CCCN(C(=O)Nc2ccc(F)c(Cl)c2)[C@@H]2CC[C@]3(c4cccc(N)c4)C[C@H]23)CC1`, the Ki in data set [2] came to 9.6 nM. Also, the inhibition at 5 ug/ml on hERG stood at 25%.

On hERG, `CC(=O)Nc1cccc([C@]23CC[C@@H](N(CCCN4CCN(C)CC4)C(=O)Nc4ccc(F)c(Cl)c4)[C@H]2C3)c1` came in with an inhibition at 5 ug/ml of 19%. As for `CN1CCN(CCCN(C(=O)Nc2ccc(F)c(C(F)(F)F)c2)[C@@H]2CC[C@]3(c4nccs4)C[C@H]23)CC1`, the inhibition at 5 ug/ml at hERG came out at 27%. Molecule `CN1CCN(CCCN(C(=O)Nc2ccc(F)c(C(F)(F)F)c2)[C@@H]2CC[C@]3(c4ccsc4)C[C@H]23)CC1` yielded an inhibition at 5 ug/ml against hERG of 75%. At hERG, `CN1CCN(CCCN(C(=O)Nc2ccc(F)c(Cl)c2)[C@@H]2CC[C@]3(c4cccnc4)C[C@H]23)CC1` showed an inhibition at 5 ug/ml of 97%. On to `CN1CCN(CCCN(C(=O)Nc2ccc(F)c(Cl)c2)[C@@H]2CC[C@]3(c4cccc(NC(=O)C(C)(C)C)c4)C[C@H]23)CC1`, for which the inhibition at 5 ug/ml against hERG was determined as 27%. At hERG, `COC(=O)c1ccc([C@]23CC[C@@H](N(CCCN4CCN(C)CC4)C(=O)Nc4ccc(F)c(C(F)(F)F)c4)[C@H]2C3)cc1` (single isomer, unassigned) had an inhibition at 5 ug/ml of 63%.

Source of the values: ChEMBL document CHEMBL1146860, “Bicyclo[3.1.0]hexyl urea melanin concentrating hormone (MCH) receptor-1 antagonists: impacting hERG liability via aryl modifications” (Bioorg Med Chem Lett, 2006).
